According to patent US10722501B2 (BAYER AKTIENGESELLSCHAFT, priority 2016, dated 2020):

molecular target: T1, recombinant full-length human prolyl endopeptidase (PREP) (Homo sapiens, UniProt P48147); assay: Biochemical human prolyl endopeptidase (PREP) assay with fluorescently labelled substrate; conditions: substrate Z-Gly-Pro-AMC 50 μM, 32° C., 60 min; some as mean values from multiple independent determinations
T1 construct: To recombinant full-length human prolyl endopeptidase (PREP, R&D-Systems, 4308-SE); purchased R&D-Systems 4308-SE
T1 sequence (P48147 1-710): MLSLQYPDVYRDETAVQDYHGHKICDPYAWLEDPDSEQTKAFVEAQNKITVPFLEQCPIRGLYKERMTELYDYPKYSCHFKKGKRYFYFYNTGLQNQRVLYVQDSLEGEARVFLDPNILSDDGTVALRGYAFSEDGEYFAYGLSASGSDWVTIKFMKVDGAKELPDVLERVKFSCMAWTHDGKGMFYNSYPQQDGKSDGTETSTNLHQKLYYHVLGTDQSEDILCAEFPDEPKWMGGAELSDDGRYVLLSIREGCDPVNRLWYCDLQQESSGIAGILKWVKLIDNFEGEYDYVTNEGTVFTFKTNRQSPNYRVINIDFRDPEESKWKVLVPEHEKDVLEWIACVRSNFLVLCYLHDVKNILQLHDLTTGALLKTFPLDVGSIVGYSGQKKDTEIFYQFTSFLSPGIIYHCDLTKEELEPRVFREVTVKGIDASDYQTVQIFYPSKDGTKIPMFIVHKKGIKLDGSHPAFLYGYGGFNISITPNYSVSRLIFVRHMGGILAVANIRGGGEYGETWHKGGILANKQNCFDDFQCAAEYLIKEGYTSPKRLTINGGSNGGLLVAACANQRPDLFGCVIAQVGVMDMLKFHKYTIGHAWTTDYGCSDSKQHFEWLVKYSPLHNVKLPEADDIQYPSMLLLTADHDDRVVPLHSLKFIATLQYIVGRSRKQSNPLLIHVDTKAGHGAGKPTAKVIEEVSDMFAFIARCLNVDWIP
In short: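 0.4 nM (final, example) recombinant PREP in pH 7.5 Tris buffer with EDTA, GSH, BSA and Brij-35; compounds at 1 nM to 30 μM. Reaction started with 50 μM Z-Gly-Pro-AMC and followed by fluorescence (ex 360/em 465 nm) at 32° C for 60 min. IC50 interpolated from percent activity based on initial slopes.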

`O=C([C@@H]1CCCc2nn(Cc3ccc(C(F)(F)F)c(F)c3)c(=O)n21)N1CC[C@H](F)C1` [Example 471, (5S)-5-{[(3S)-3-Fluoropyrrolidin-1-yl]carbonyl}-2-[3-fluoro-4-(trifluoromethyl)benzyl]-5,6,7,8-tetrahydro[1,2,4]triazolo[4,3-a]pyridin-3(2H)-one] and `O=C([C@@H]1CCCc2nn(Cc3ccc(C(F)(F)F)c(Cl)c3)c(=O)n21)N1CC[C@H](F)C1` [Example 461, (5S)-2-[3-Chloro-4-(trifluoromethyl)benzyl]-5-{[(3S)-3-fluoropyrrolidin-1-yl]carbonyl}-5,6,7,8-tetrahydro[1,2,4]triazolo[4,3-a]pyridin-3(2H)-one] are within 1.5-fold of each other in IC50: 0.425 nM for the first, 0.625 nM for the second.

Compared with `CC1CCC(C(=O)N2CC(F)C2)n2c1nn(Cc1ccc(C(F)(F)F)nc1)c2=O` (racemic) [Example 328, (5RS,8RS)-5-[(3-Fluoroazetidin-1-yl)carbonyl]-8-methyl-2-{[6-(trifluoromethyl)pyridin-3-yl]methyl}-5,6,7,8-tetrahydro[1,2,4]triazolo[4,3-a]pyridin-3(2H)-one], `O=C([C@@H]1CCC(O)c2nn(Cc3ccc(C(F)(F)F)nc3)c(=O)n21)N1CC[C@H](F)C1` (mixture of isomers) [Example 275, (5S,8RS)-5-{[(3S)-3-Fluoropyrrolidin-1-yl]carbonyl}-8-hydroxy-2-{[6-(trifluoromethyl)pyridin-3-yl]methyl}-5,6,7,8-tetrahydro[1,2,4]triazolo[4,3-a]pyridin-3(2H)-one] is 3.6-fold lower in IC50: 4.1 nM for the first, 1.15 nM for the second. The second is the more potent here.

`O=C(C1CCCc2nn(Cc3ccc(Cl)cn3)c(=O)n21)N1CCC(F)(F)C1` (racemic) [Example 78, (5RS)-2-[(5-Chloropyridin-2-yl)methyl]-5-[(3,3-difluoropyrrolidin-1-yl)carbonyl]-5,6,7,8-tetrahydro[1,2,4]triazolo[4,3-a]pyridin-3(2H)-one] and `O=C([C@@H]1CCCc2nn(Cc3ncc(Cl)cc3Cl)c(=O)n21)N1CC(F)(F)C1` [Example 397, (5S)-2-[(3,5-Dichloropyridin-2-yl)methyl]-5-[(3,3-difluoroazetidin-1-yl)carbonyl]-5,6,7,8-tetrahydro[1,2,4]triazolo[4,3-a]pyridin-3(2H)-one] are within 1.5-fold of each other in IC50: 6 nM for the first, 6.9 nM for the second.

Compared with `Cc1ccc(C2(Cn3nc4n(c3=O)[C@H](C(=O)N3CC(F)C3)CCC4)CC2)cc1` [Example 355, (5S)-5-[(3-Fluoroazetidin-1-yl)carbonyl]-2-{[1-(4-methylphenyl)cyclopropyl]methyl}-5,6,7,8-tetrahydro[1,2,4]triazolo[4,3-a]pyridin-3(2H)-one], `Cc1ccc(Cn2nc3n(c2=O)[C@H](C(=O)N2CC(F)C2)CCC3)cc1` [Example 113, (5S)-5-[(3-Fluoroazetidin-1-yl)carbonyl]-2-(4-methylbenzyl)-5,6,7,8-tetrahydro[1,2,4]triazolo[4,3-a]pyridin-3(2H)-one] is 3.1-fold lower in IC50: 1.3 nM for the first, 0.42 nM for the second. The second is the more potent here.

Going from `O=C([C@@H]1CCCc2nn(Cc3ncccc3Cl)c(=O)n21)N1CC(F)(F)C1` [Example 394, (5S)-2-[(3-Chloropyridin-2-yl)methyl]-5-[(3,3-difluoroazetidin-1-yl)carbonyl]-5,6,7,8-tetrahydro[1,2,4]triazolo[4,3-a]pyridin-3(2H)-one] to `O=C([C@@H]1CCCc2nn(Cc3ncccc3Cl)c(=O)n21)N1C[C@@H](F)[C@@H](F)C1` [Example 395, (5S)-2-[(3-Chloropyridin-2-yl)methyl]-5-{[(3R,4S)-3,4-difluoropyrrolidin-1-yl]carbonyl}-5,6,7,8-tetrahydro[1,2,4]triazolo[4,3-a]pyridin-3(2H)-one], the IC50 falls from 28 nM to 1.6 nM (18-fold). The second is the more potent here.

First: O=C(C1CC(C(F)(F)F)Cc2nn(Cc3ncc(F)cc3Cl)c(=O)n21)N1CC[C@H](F)C1 (single isomer, unassigned) [Example 572]
Second: O=C(C1CC(C(F)(F)F)Cc2nn(Cc3ncc(C(F)(F)F)cc3Cl)c(=O)n21)N1CC[C@H](F)C1 (single isomer, unassigned) [Example 563]
The IC50 of the first is 4.2-fold higher: 1.4 nM for the first, 0.33 nM for the second. The second is the more potent here.

First: Cn1ccc(Cn2nc3n(c2=O)C(C(=O)N2CCCC2)CCC3)n1 (racemic) [Example 21, (5RS)-2-[(1-Methyl-1H-pyrazol-3-yl)methyl]-5-(pyrrolidin-1-ylcarbonyl)-5,6,7,8-tetrahydro[1,2,4]triazolo[4,3-a]pyridin-3(2H)-one]
Second: O=C([C@@H]1CCCc2nn(Cc3ncc(C(F)(F)F)cc3Cl)c(=O)n21)N1CCCC1 [Example 106, (5S)-2-{[3-Chloro-5-(trifluoromethyl)pyridin-2-yl]methyl}-5-(pyrrolidin-1-ylcarbonyl)-5,6,7,8-tetrahydro[1,2,4]triazolo[4,3-a]pyridin-3(2H)-one]
The IC50 of the first is 4.1-fold higher: 6.9 nM for the first, 1.7 nM for the second.

`O=C([C@@H]1CCC(O)c2nn(Cc3cncc(Cl)c3)c(=O)n21)N1CC[C@H](F)C1` (mixture of isomers) [Example 279, (5S,8RS)-2-[(5-Chloropyridin-3-yl)methyl]-5-{[(3S)-3-fluoropyrrolidin-1-yl]carbonyl}-8-hydroxy-5,6,7,8-tetrahydro[1,2,4]triazolo[4,3-a]pyridin-3(2H)-one] and `CC1CCC(C(=O)N2CC[C@H](F)C2)n2c1nn(Cc1ccc(F)c(Cl)c1)c2=O` (mixture of isomers) [Example 320, (5RS,8RS)-2-(3-Chloro-4-fluorobenzyl)-5-{[(3S)-3-fluoropyrrolidin-1-yl]carbonyl}-8-methyl-5,6,7,8-tetrahydro[1,2,4]triazolo[4,3-a]pyridin-3(2H)-one] are within 1.5-fold of each other in IC50: 0.485 nM for the first, 0.69 nM for the second.

Compared with `COc1ccc(Cn2nc3n(c2=O)[C@H](C(=O)N2CCC[C@H]2C#N)CCC3)cn1` [Example 432, (2S)-1-({(5S)-2-[(6-Methoxypyridin-3-yl)methyl]-3-oxo-2,3,5,6,7,8-hexahydro[1,2,4]triazolo[4,3-a]pyridin-5-yl}carbonyl)pyrrolidine-2-carbonitrile], `Cc1ccc(Cn2nc3n(c2=O)[C@H](C(=O)N2CC[C@H](C(F)F)C2)CCC3)cc1` [Example 143, (5S)-5-{[(3S)-3-(Difluoromethyl)pyrrolidin-1-yl]carbonyl}-2-(4-methylbenzyl)-5,6,7,8-tetrahydro[1,2,4]triazolo[4,3-a]pyridin-3(2H)-one] is 100-fold higher in IC50: 0.13 nM for the first, 13.1 nM for the second.

Compared with `O=C([C@@H]1CCCc2nn(Cc3cc4cccnc4nc3C(F)(F)F)c(=O)n21)N1CC(F)C1` [Example 420, (5S)-5-[(3-Fluoroazetidin-1-yl)carbonyl]-2-{[2-(trifluoromethyl)-1,8-naphthyridin-3-yl]methyl}-5,6,7,8-tetrahydro[1,2,4]triazolo[4,3-a]pyridin-3(2H)-one], `O=C([C@@H]1CCCc2nn(Cc3cc(C(F)(F)F)c(Cl)cn3)c(=O)n21)N1CC(F)C1` [Example 375, (5S)-2-{[5-Chloro-4-(trifluoromethyl)pyridin-2-yl]methyl}-5-[(3-fluoroazetidin-1-yl)carbonyl]-5,6,7,8-tetrahydro[1,2,4]triazolo[4,3-a]pyridin-3(2H)-one] is 1.5-fold higher in IC50: 1.7 nM for the first, 2.6 nM for the second. The first is the more potent here.

Compared with `O=C(C1CCc2nn(Cc3ccnc(C(F)(F)F)c3F)c(=O)n21)N1CC[C@H](F)C1` (single isomer, unassigned) [Example 179], `O=C(C1CC(C(F)(F)F)Cc2nn(Cc3ccc(Cl)nc3)c(=O)n21)N1CC[C@H](F)C1` (mixture of isomers) [Example 241, (5RS,7RS)-2-[(6-Chloropyridin-3-yl)methyl]-5-{[(3S)-3-fluoropyrrolidin-1-yl]carbonyl}-7-(trifluoromethyl)-5,6,7,8-tetrahydro[1,2,4]triazolo[4,3-a]pyridin-3(2H)-one] is 100-fold lower in IC50: 600 nM for the first, 5.8 nM for the second.

Going from `O=C(C1CC(C(F)(F)F)Cc2nn(Cc3ccc(Cl)nc3)c(=O)n21)N1CC(F)C1` (single isomer, unassigned) [Example 240, (5RS,7RS)-2-[(6-Chloropyridin-3-yl)methyl]-5-[(3-fluoroazetidin-1-yl)carbonyl]-7-(trifluoromethyl)-5,6,7,8-tetrahydro[1,2,4]triazolo[4,3-a]pyridin-3(2H)-one] to `O=C([C@@H]1CCCc2nn(Cc3ncc(Cl)cc3F)c(=O)n21)N1CC(F)C(F)C1` (some centres unmarked) [Example 549], the IC50 rises from 4.2 nM to 36 nM (8.6-fold). The first is the more potent here.

Going from `CC1CCC(C(=O)N2CC[C@H](F)C2)n2c1nn(Cc1ccc(F)cc1F)c2=O` (mixture of isomers) [Example 326, (5RS,8RS)-2-(2,4-Difluorobenzyl)-5-{[(3S)-3-fluoropyrrolidin-1-yl]carbonyl}-8-methyl-5,6,7,8-tetrahydro[1,2,4]triazolo[4,3-a]pyridin-3(2H)-one] to `O=C([C@@H]1CCCc2nn(Cc3cccc(C(F)(F)F)c3)c(=O)n21)N1CCC(F)(F)C1` [Example 446, (5S)-5-[(3,3-Difluoropyrrolidin-1-yl)carbonyl]-2-[3-(trifluoromethyl)benzyl]-5,6,7,8-tetrahydro[1,2,4]triazolo[4,3-a]pyridin-3(2H)-one], the IC50 falls from 1.5 nM to 0.73 nM (2.1-fold). The second is the more potent here.
